From PubChem BioAssay (NCI)
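In this assay, cells in 96-well plates receive the compound at five concentrations for 48 hours. Endpoints are linearly interpolated between the surrounding concentrations. GI50: concentration for 50% inhibition of growth. The concentration for full growth arrest is given as TGI.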

Assays:
Experiment in all cases: NCI tumour cell line growth inhibition, 48 h
[1] = test system: SK-MEL-2 melanoma
[2] = test system: SF-268 CNS
[3] = test system: OVCAR-8 ovarian
[4] = test system: HT29 colon
[5] = test system: NCI-H460 lung
[6] = test system: UACC-257 melanoma
[7] = test system: SNB-75 CNS
[8] = test system: LOX IMVI melanoma
[9] = test system: HOP-92 NSCLC
[10] = test system: MDA-MB-231 breast

Structure (SMILES)	TGI [1] [µM]	TGI [2] [µM]	TGI [3] [µM]	TGI [4] [µM]	TGI [5] [µM]	TGI [6] [µM]	TGI [7] [µM]	TGI [8] [µM]	TGI [9] [µM]	GI50 [1] [µM]	GI50 [10] [µM]	TGI [10] [µM]	GI50 [2] [µM]	GI50 [3] [µM]	GI50 [4] [µM]	GI50 [5] [µM]	GI50 [6] [µM]	GI50 [8] [µM]	GI50 [9] [µM]
CCOC(=O)C(=C=Cc1cccs1)C(=O)c1ccccc1	33.4	33.2	29.3	34.5	46	25.5	29.8	24.9	19.1										
O=C(Nc1ccc(Cl)cc1Cl)c1c/c(=N\O)c2ccc(O)cc2o1		> 100	> 100	> 100	> 100	> 100	> 100	> 100	> 100										
O=C(O)C(=O)/C=C\c1ccc(Cl)cc1	> 100	> 100	> 100	> 100	> 100	> 100	> 100	> 100	> 100										
COC(=O)C1=C(SC)SC2(C(=O)OC)C3C=C(C)C4C(N13)C42C(=O)OC (stereo not given)	> 100	> 100	> 100	> 100	> 100	> 100	> 100	> 100											
c1ccc2c(c1)N=c1ccccc1=P21c2ccccc2Nc2ccccc21	0.923	10.2	5.62	10.1	10.7	2.73	4.67	4.96	2.32										
CC(=O)OC1CC[C@@]2(C)C(CC(OC3OC(CO)C(O)C(O)C3O)[C@]3(C)C2CCC24CC23CC[C@H]4C(C)CC(O)[C@@H](O)C(C)(C)O)C1(C)C (stereo not given in full)	18.8	> 50	> 50	> 50	> 50	24.4	32	15.5	19.5										
COC(=O)CC[C@@H](NC(=O)C(C)NC(=O)COC1C(O)C(COC(=O)CCCCCCCCCCNC(=O)c2ccc([N+](=O)[O-])c3[nH]c4cc(Br)ccc4c(=O)c23)OC(OCc2ccccc2)C1NC(C)=O)C(N)=O (stereo not given in full)	> 100	> 100	> 100	> 100	> 100	> 100	> 100	> 100	> 100										
O=C(N/C(=C\c1cc(Cl)ccc1Cl)c1nc2ccccc2[nH]1)c1ccccc1	> 100	> 100	46.9	29.8					31.5										
CCCCc1c2c(nc3c1CCc1cc(C=O)c(N)nc1-3)/C(=C/c1ccccc1)CCC2	> 100	> 100	> 100	> 100	> 100	> 100	> 100	> 100	> 100										
COC(=O)C1=C(O)C(C(=O)OC)[C@@]2(O)[C@@H](C(=O)OC)C(c3ccc(OC(=O)C(Cc4ccccc4)NC(C)=O)cc3)C[C@@H]1[C@@H]2C(=O)OC (stereo not given in full)	> 100	88.3	59.2	33.6	> 100	50.5		32.2	58.8	47.4	21	58.8	21.9	23.1	15.6	20.5	13.9	18	21.4
CC(=O)OCC1OC(n2c(-c3ccc(N)cc3)cc(-c3ccco3)c(C#N)c2=O)C(OC(C)=O)C(OC(C)=O)C1OC(C)=O (stereo not given)	> 50	> 50	> 50	> 50		> 50	> 50	> 50	33.9										
NNC(=S)N/N=C(\c1nc2ccc(Cl)cc2[nH]c1=O)C(O)c1ccc(Cl)cc1Cl (stereo not given)	> 100	> 100	> 100	> 100	> 100	> 100	> 100	> 100	> 100										
COc1ccc(-c2cc(-c3ccco3)c(C#N)c(=O)n2C2OC(OC(=O)c3ccccc3)C(OC(=O)c3ccccc3)C2OC(=O)c2ccccc2)cc1 (stereo not given)	> 100		> 100	> 100	> 100	> 100	> 100	> 100	54.5										
O=C(CC1Sc2ccccc2NC1=O)Nc1ccc([N+](=O)[O-])cc1[N+](=O)[O-] (stereo not given)	46.5	30.9	31	33.1	59.5	46.2	38.7	30.1	31.3										
O=C(CCCCCCCCC(=O)OCCCn1cc(C(=O)NC(=O)OCc2ccccc2)c(=O)[nH]c1=O)OCCCn1cc(C(=O)NC(=O)OCc2ccccc2)c(=O)[nH]c1=O	> 100	> 100	> 100	> 100	> 100	> 100	> 100	> 100	> 100										
COc1cc2c3c(c1OC)C1(C=CC(=O)C=C1)CC3N(C(=O)OC(C)(C)C(Cl)(Cl)Cl)CC2 (stereo not given)	25.2	31.8	31.5	24.4	30.8	26.2	34.5	26.1	29.8										
C[N+](C)(C)CC(=O)NC(=O)N/N=C\C(CC#N)CN(Cc1ccccc1)Cc1ccccc1 (stereo not given)	> 100	> 100	> 100	> 100	> 100	> 100	> 100	> 100											
O=C(CCCCCn1c2ccccc2c2c3c(c4c5ccccc5[nH]c4c21)C(=O)N(O)C3=O)N1CCOCC1	5.47		7.86	5.88	4.69	7.76		2.57		2.4	2.16	5.87		2.84	2.42	2.16	3.19	1.05	
COc1cc(OC)c(Oc2cccc(OC)c2OC)c(OC)c1	> 100	> 100	> 100	> 100	> 100	> 100	> 100	> 100	> 100										
O=c1c2ccccc2oc2nccnc12	> 100	> 100	> 100	> 100	> 100	> 100	> 100	> 100											
COc1ncn(C2C=C(CO)C(O)C2O)c(=O)n1 (stereo not given)	> 100	> 100	> 100		> 100	> 100	> 100												
